Values quoted from earlier work, collected in patent US10765664B2, “Treatment of infectious diseases” (CHILDREN'S MEDICAL CENTER CORPORATION, priority 2015, dated 2020).

Tested on: nonreplicating MTb
Settings: extremely high inocula; cited from earlier work

For CC(=O)Oc1ccccc1C(=O)Nc1ncc([N+](=O)[O-])s1 [NTZ, [2-[(5-nitro-1,3-thiazol-2-yl)carbamoyl]phenyl] ethanoate], the resistance mutants is listed as “no evidence of resistance mutants”.
